Our source for the inhibition values is ChEMBL document CHEMBL3091345, “Strepsesquitriol, a rearranged zizaane-type sesquiterpenoid from the deep-sea-derived actinomycete Streptomyces sp. SCSIO 10355” (2013).

Each structure is given as a SMILES string.

This assay concerns RAW264.7. As to the kind of experiment: Antiinflammatory activity in mouse RAW264.7 cells assessed as inhibition of LPS-induced TNFalpha production at 100 uM treated 4 hrs before LPS challenge measured after overnight incubation by ELISA. It counts as functional. (In general: An ELISA detects its analyte on a solid surface through an enzyme-linked reagent.)

In the case of `Cc1ccc(S(=O)(=O)N[C@@H](Cc2ccccc2)C(=O)CCl)cc1` [TPCK], the inhibition at 100 µM was 60.6%.

Take `C[C@H]1C[C@@H](O)[C@]23C[C@H](CC[C@]12O)C(C)(C)[C@]3(C)O`: the inhibition at 100 µM came to 35.4%.

One may read the inhibition as the drop in the measured response relative to a control, in per cent.
